Test results reported in PubChem BioAssay (NCI).
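Method: 48-hour compound exposure of cells in 96-well plates, five concentrations, linear interpolation of endpoints. Here, GI50 denotes the concentration required for 50% inhibition of growth. Definition used: TGI = concentration required for complete inhibition of growth.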

Assays:
Test in all cases: NCI anticancer screen, dose series, 48 h; in the data active = GI50 below about 0.43 µM; inactive = the rest
[1] = test system: NCI-H226 lung
[2] = test system: HCT-116 colon
[3] = test system: ACHN renal
[4] = test system: DU-145 prostate
[5] = test system: CAKI-1 renal
[6] = test system: TK-10 renal
[7] = test system: HL-60(TB) leukemia
[8] = test system: 786-0 renal
[9] = test system: BT-549 breast
[10] = test system: UACC-257 melanoma
[11] = test system: SF-295 CNS
[12] = test system: MOLT-4 leukemia
[13] = test system: SK-MEL-28 melanoma
[14] = test system: NCI-H23 lung
[15] = test system: RPMI-8226 leukemia
[16] = test system: A498 renal
[17] = test system: SW-620 colon
[18] = test system: SN12C renal
[19] = test system: HCT-15 colon
[20] = test system: OVCAR-4 ovarian
[21] = test system: SK-MEL-5 melanoma
[22] = test system: SK-MEL-2 melanoma
[23] = test system: MDA-N
[24] = test system: MCF7 breast
[25] = test system: HT29 colon
[26] = test system: SR leukemia
[27] = test system: SNB-19 CNS
[28] = test system: MDA-MB-231 breast
[29] = test system: UACC-62 melanoma
[30] = test system: U251 CNS
[31] = test system: COLO 205 colon
[32] = test system: SK-OV-3 ovarian
[33] = test system: LOX IMVI melanoma
[34] = test system: OVCAR-3 ovarian
[35] = test system: SF-539 CNS
[36] = test system: CCRF-CEM leukemia
[37] = test system: NCI/ADR-RES ovarian
[38] = test system: OVCAR-5 ovarian
[39] = test system: SF-268 CNS
[40] = test system: NCI-H460 lung
[41] = test system: EKVX NSCLC
[42] = test system: KM12 colon
[43] = test system: MALME-3M melanoma
[44] = test system: OVCAR-8 ovarian
[45] = test system: T-47D breast
[46] = test system: PC-3 prostate
[47] = test system: RXF 393 renal
[48] = test system: HS 578T breast
[49] = test system: MDA-MB-435
[50] = test system: HCC-2998 colon
[51] = test system: HOP-62 NSCLC
[52] = test system: IGROV1 ovarian
[53] = test system: M14 melanoma
[54] = test system: A549 NSCLC
[55] = test system: NCI-H522 lung
[56] = test system: UO-31 renal
[57] = test system: K-562 leukemia
[58] = test system: HOP-92 NSCLC
[59] = test system: SNB-75 CNS

OCCNCCN1CCN(CCCN2c3ccccc3Sc3ccc(C(F)(F)F)cc32)CC1
37.5 µM: TGI [22]
28.5 µM: TGI [33]
54.6 µM: TGI [37]
37.2 µM: TGI [6]
49.9 µM: TGI [1]
48.6 µM: TGI [54]
33.9 µM: TGI [18]
32.4 µM: TGI [31]
34.9 µM: TGI [11]
> 100 µM: TGI [4] | TGI [5] | TGI [7] | TGI [9] | TGI [12] | TGI [15] | TGI [16] | TGI [21] | TGI [26] | TGI [36] | TGI [52]
47.5 µM: TGI [47]
77.9 µM: TGI [32]
39.5 µM: TGI [13]
38.1 µM: TGI [51]
31 µM: TGI [8]
41.2 µM: TGI [29]
40.3 µM: TGI [34]
37.3 µM: TGI [19]
28.3 µM: TGI [25]
45 µM: TGI [43]
51 µM: TGI [14]
44 µM: TGI [39]
34.5 µM: TGI [35]
43.5 µM: TGI [38]
48.8 µM: TGI [20]
52.3 µM: TGI [41]
39.8 µM: TGI [24]
31.9 µM: TGI [44]
49.2 µM: TGI [27]
36.6 µM: TGI [55]
35.8 µM: TGI [30]
35.5 µM: TGI [28]
33.7 µM: TGI [23] | TGI [49]
44.7 µM: TGI [40] | TGI [50]
35.3 µM: TGI [17]
70.1 µM: TGI [48]
30.2 µM: TGI [53]
50.4 µM: TGI [45]
34.6 µM: TGI [10]
31.7 µM: TGI [2]
43.2 µM: TGI [3]
62.1 µM: TGI [46]
45.1 µM: TGI [42]

COC(=O)[C@@H]1[C@H](OC(C)=O)CCC2[C@@]3(C[C@@H](c4ccoc4)O[C@@H]3OC)[C@H](C)CC[C@]21C(=O)OC (some centres undefined)
> 25 µM: TGI [1] | TGI [2] | TGI [3] | TGI [4] | TGI [5] | TGI [6] | TGI [7] | TGI [8] | TGI [9] | TGI [10] | TGI [11] | TGI [12] | TGI [14] | TGI [15] | TGI [16] | TGI [17] | TGI [18] | TGI [19] | TGI [20] | TGI [21] | TGI [22] | TGI [23] | TGI [24] | TGI [25] | TGI [56] | TGI [26] | TGI [27] | TGI [28] | TGI [29] | TGI [30] | TGI [31] | TGI [32] | TGI [57] | TGI [33] | TGI [34] | TGI [35] | TGI [36] | TGI [37] | TGI [38] | TGI [39] | TGI [40] | TGI [41] | TGI [42] | TGI [44] | TGI [58] | TGI [45] | TGI [46] | TGI [47] | TGI [48] | TGI [49] | TGI [50] | TGI [52] | TGI [53] | TGI [54] | TGI [55] | TGI [59]

COc1ccccc1-c1cc(=O)c2cc(C)cnc2[nH]1
52.5 µM: TGI [31]
84.5 µM: TGI [25]
27.3 µM: TGI [49]
> 100 µM: TGI [1] | TGI [2] | TGI [3] | TGI [4] | TGI [5] | TGI [6] | TGI [8] | TGI [9] | TGI [10] | TGI [11] | TGI [12] | TGI [13] | TGI [14] | TGI [15] | TGI [17] | TGI [18] | TGI [19] | TGI [20] | TGI [21] | TGI [22] | TGI [24] | TGI [56] | TGI [26] | TGI [27] | TGI [28] | TGI [29] | TGI [30] | TGI [32] | TGI [33] | TGI [35] | TGI [38] | TGI [39] | TGI [40] | TGI [41] | TGI [42] | TGI [43] | TGI [44] | TGI [58] | TGI [45] | TGI [46] | TGI [47] | TGI [48] | TGI [50] | TGI [51] | TGI [52] | TGI [53] | TGI [54] | TGI [55]
60.2 µM: TGI [34]
24.9 µM: TGI [23]
79.2 µM: TGI [16]
inactive: GI50 [2] 42.8 µM | GI50 [7] 9.53 µM | GI50 [8] 41.4 µM | GI50 [11] 31.1 µM | GI50 [21] 20.4 µM | GI50 [23] 4.41 µM | GI50 [30] 27.8 µM | GI50 [34] 19.5 µM | GI50 [40] 32.6 µM | GI50 [46] 27 µM
47.1 µM: TGI [37]
55.2 µM: TGI [36]
76.2 µM: TGI [7]
61.3 µM: TGI [57]
